Data: ChEMBL document CHEMBL1124001, “Synthesis and antileukemic activity of bis[[(carbamoyl)oxy]methyl]- substituted pyrrolo[2,1-a]isoquinolines, pyrrolo[1,2-a]quinolines, pyrrolo[2,1-a]isobenzazepines, and pyrrolo[1,2-a]benzazepines” (J Med Chem, 1988)

Key:
Mus musculus [1] = assay: Net log cell kill was determined after injecting 7.5 mg/kg intraperitoneally in CD2F1 mice; format: functional; settings: route intraperitoneal
Mus musculus [2] = assay: Net log cell kill was determined after injecting 1.87 mg/kg intraperitoneally in CD2F1 mice; format: functional; settings: route intraperitoneal
Mus musculus [3] = assay: Net log cell kill was determined after injecting 15 mg/kg intraperitoneally in CD2F1 mice; format: functional; settings: route intraperitoneal
Mus musculus [4] = assay: Body weight change of test animals to that of control was determined after injection at 7.5 mg/kg intraperitoneally in CD2F1 mice; format: functional; settings: route intraperitoneal
Mus musculus [5] = assay: Net log cell kill was determined after injecting 3.75 mg/kg intraperitoneally in CD2F1 mice; format: functional; settings: route intraperitoneal
Mus musculus [6] = assay: Net log cell kill was determined after injecting 30 mg/kg intraperitoneally in CD2F1 mice; format: functional; settings: route intraperitoneal
Mus musculus [7] = assay: Body weight change of test animals to that of control was determined after injection at 1.87 mg/kg intraperitoneally in CD2F1 mice; format: functional; settings: route intraperitoneal
Mus musculus [8] = assay: Body weight change of test animals to that of control was determined after injection at 15 mg/kg intraperitoneally in CD2F1 mice; format: functional; settings: route intraperitoneal
Mus musculus [9] = assay: Body weight change of test animals to that of control was determined after injection at 3.75 mg/kg intraperitoneally in CD2F1 mice; format: functional; settings: route intraperitoneal
Mus musculus [10] = assay: Body weight change of test animals to that of control was determined after injection at 30 mg/kg intraperitoneally in CD2F1 mice; format: functional; settings: route intraperitoneal
Mus musculus [11] = assay: Toxicity day survivors was determined by the ratio of animals survived to that of test animals at 3.75 mg/kg intraperitoneally in CD2F1 mice; 5/5; format: organism-based; design: dose 3.75 mg/kg, route intraperitoneal; settings: in vivo, ip
Mus musculus [12] = assay: Toxicity day survivors was determined by the ratio of animals survived to that of test animals at 30 mg/kg intraperitoneally in CD2F1 mice; 6/6; format: organism-based; design: dose 30 mg/kg, route intraperitoneal; settings: in vivo, ip
Mus musculus [13] = assay: Toxicity day survivors was determined by the ratio of animals survived to that of test animals at 60 mg/kg intraperitoneally in CD2F1 mice; 0/6; format: organism-based; design: dose 60 mg/kg, route intraperitoneal; settings: in vivo, ip
Mus musculus [14] = assay: Toxicity day survivors was determined by the ratio of animals survived to that of test animals at 1.87 mg/kg intraperitoneally in CD2F1 mice; 5/5; format: organism-based; design: dose 1.87 mg/kg, route intraperitoneal; settings: in vivo, ip
Mus musculus [15] = assay: Toxicity day survivors was determined by the ratio of animals survived to that of test animals at 15 mg/kg intraperitoneally in CD2F1 mice; 4/4; format: organism-based; design: dose 15 mg/kg, route intraperitoneal; settings: in vivo, ip
Mus musculus [16] = assay: Ratio of treated to that of untreated tumor-bearing control animals at 30 mg/kg intraperitoneally in CD2F1 mice was determined; format: functional; settings: route intraperitoneal
Mus musculus [17] = assay: Ratio of treated to that of untreated tumor-bearing control animals at 7.5 mg/kg intraperitoneally in CD2F1 mice was determined; format: functional; settings: route intraperitoneal
Mus musculus [18] = assay: Ratio of treated to that of untreated tumor-bearing control animals at 1.87 mg/kg intraperitoneally in CD2F1 mice was determined; format: functional; settings: route intraperitoneal
Mus musculus [19] = assay: Ratio of treated to that of untreated tumor-bearing control animals at 15 mg/kg intraperitoneally in CD2F1 mice was determined; format: functional; settings: route intraperitoneal
Mus musculus [20] = assay: Toxicity day survivors was determined by the ratio of animals survived to that of test animals at 7.5 mg/kg intraperitoneally in CD2F1 mice; 4/4; format: organism-based; design: dose 7.5 mg/kg, route intraperitoneal; settings: in vivo, ip
Mus musculus [21] = assay: Ratio of treated to that of untreated tumor-bearing control animals at 3.75 mg/kg intraperitoneally in CD2F1 mice was determined; format: functional; settings: route intraperitoneal
Mus musculus [22] = assay: Toxicity day survivors was determined by the ratio of animals survived to that of test animals at 15 mg/kg intraperitoneally in CD2F1 mice; 0/6; format: organism-based; design: dose 15 mg/kg, route intraperitoneal; settings: in vivo, ip
Mus musculus [23] = assay: Toxicity day survivors was determined by the ratio of animals survived to that of test animals at 3.75 mg/kg intraperitoneally in CD2F1 mice; 6/6; format: organism-based; design: dose 3.75 mg/kg, route intraperitoneal; settings: in vivo, ip
Mus musculus [24] = assay: Toxicity day survivors was determined by the ratio of animals survived to that of test animals at 1.87 mg/kg intraperitoneally in CD2F1 mice; 6/6; format: organism-based; design: dose 1.87 mg/kg, route intraperitoneal; settings: in vivo, ip
Mus musculus [25] = assay: Toxicity day survivors was determined by the ratio of animals survived to that of test animals at 7.5 mg/kg intraperitoneally in CD2F1 mice; 6/6; format: organism-based; design: dose 7.5 mg/kg, route intraperitoneal; settings: in vivo, ip

| SMILES | KE (Mus musculus [1]) | KE (Mus musculus [2]) | T-C (Mus musculus [4]) | KE (Mus musculus [5]) | T-C (Mus musculus [7]) | T-C (Mus musculus [9]) | T/C (Mus musculus [17]) | T/C (Mus musculus [18]) | T/C (Mus musculus [21]) | also measured |
| --- | --- | --- | --- | --- | --- | --- | --- | --- | --- | --- |
| COc1ccc2c(c1)CCc1c(COC(=O)NC(C)C)c(COC(=O)NC(C)C)c(C)n1-2 | -1.31 | -1.56 | -2.9 g | -1.45 | -0.6 g | -0.8 g | 116% | 97% | 105% | KE (Mus musculus [3]): 1.43; KE (Mus musculus [6]): 1.51; T-C (Mus musculus [8]): -6.5 g; T-C (Mus musculus [10]): -4.2 g; TDS (Mus musculus [11]): 5; TDS (Mus musculus [12]): 6; TDS (Mus musculus [13]): 0; TDS (Mus musculus [14]): 5; TDS (Mus musculus [15]): 4; T/C (Mus musculus [16]): 160%; T/C (Mus musculus [19]): 150%; TDS (Mus musculus [20]): 4 |
| Cc1c(COC(=O)NC(C)C)c(COC(=O)NC(C)C)c2n1-c1ccccc1CC2 | -1.64 | -0.14 | -2.8 g | 1.47 | -1.5 g | -3.6 g | 94% | 134% | 155% | TDS (Mus musculus [22]): 0; TDS (Mus musculus [23]): 6; TDS (Mus musculus [24]): 6; TDS (Mus musculus [25]): 6 |
